Experimental data published in ChEMBL document CHEMBL1795345, “Significant enhancement in radical-scavenging activity of curcuminoids conferred by acetoxy substituent at the central methylene carbon” (Bioorg Med Chem, 2011).

Tests used:
[1] = tested on: Radical scavenging activity; assay: Antioxidant activity assessed as DPPH radical scavenging activity; assay type: functional
[2] = tested on: Radical scavenging activity; assay: Antioxidant activity assessed as reduction in compound induced DPPH radical scavenging activity at 100 uM in presence of 100 mM acetic acid measured 30 mins after mixing compound with DPPH; assay type: functional; design: scale not given: the % may be the effect or the level left

Row | EC50 [1] | SMILES | Activity [2]
1 | > 100 µM | COc1ccc(/C=C/C(=O)/C=C(O)/C=C/c2ccc(OC)c(OC)c2)cc1OC [DIMETHYLCURCUMIN] | 
2 | > 100 µM | O=C(/C=C(O)/C=C/c1ccccc1)/C=C/c1ccccc1 | 
3 | 15.7 µM | O=C1O[C@H]([C@@H](O)CO)C(O)=C1O [ASCORBIC ACID] | 
4 | 47.8 µM | CC(=O)O/C(C(=O)/C=C/c1ccccc1)=C(O)\C=C\c1ccccc1 | 25%
5 | 23.2 µM | C=CC/C(C(=O)/C=C/c1ccc(O)c(OC)c1)=C(O)\C=C\c1ccc(O)c(OC)c1 | 
6 | 11.3 µM | COc1cc(/C=C/C(=O)/C=C(O)/C=C/c2cc(O)c(O)c(OC)c2)cc(O)c1O | 
7 | > 100 µM | O=C(/C=C/c1ccc(O)cc1)CC(=O)/C=C/c1ccc(O)cc1 [BISDEMETHOXYCURCUMIN] | 
8 | 30.3 µM | CO/C(C(=O)/C=C/c1ccc(O)c(OC)c1)=C(O)\C=C\c1ccc(O)c(OC)c1 | 
9 | 27.4 µM | COc1cc(/C=C/C(=O)/C(OC(C)=O)=C(O)/C=C/c2cc(OC)c(OC)c(OC)c2)cc(OC)c1OC | 25%
10 | 22.1 µM | COc1ccc(/C=C/C(=O)/C(OC(C)=O)=C(O)/C=C/c2ccc(OC)c(OC)c2)cc1OC | 25%
11 | > 100 µM | COc1ccc(/C=C/C(=O)/C(C)=C(O)/C=C/c2ccc(OC)c(OC)c2)cc1OC | 
12 | 26.3 µM | CC(=O)O/C(C(=O)/C=C/c1ccc(O)cc1)=C(O)\C=C\c1ccc(O)cc1 | 13%
13 | 75.5 µM | CO/C(C(=O)/C=C/c1ccc(OC)c(OC)c1)=C(O)\C=C\c1ccc(OC)c(OC)c1 | 
14 | > 100 µM | COc1ccc(/C=C/C(=O)/C=C(O)/C=C/c2ccc(OC)cc2)cc1 | 
15 | 8.7 µM | COc1cc(/C=C/C(=O)/C(OC(C)=O)=C(O)/C=C/c2ccc(O)c(OC)c2)ccc1O | 10%
16 | 22.6 µM | COc1cc(/C=C/C(=O)CC(=O)/C=C/c2ccc(O)c(OC)c2)ccc1O [CURCUMIN] | 10%
17 | 32.8 µM | COc1ccc(/C=C/C(=O)/C(OC(C)=O)=C(O)/C=C/c2ccc(OC)cc2)cc1 | 25%
18 | 29.7 µM | CCOC(=S)S/C(C(=O)/C=C/c1ccc(O)c(OC)c1)=C(O)\C=C\c1ccc(O)c(OC)c1 | 
19 | 2.9 µM | COc1cc(/C=C/C(=O)/C(OC(C)=O)=C(O)/C=C/c2cc(O)c(O)c(OC)c2)cc(O)c1O | 
20 | 23.2 µM | COc1cc(/C=C/C(=O)/C(C)=C(O)/C=C/c2ccc(O)c(OC)c2)ccc1O | 
21 | > 100 µM | C=CC/C(C(=O)/C=C/c1ccc(OC)c(OC)c1)=C(O)\C=C\c1ccc(OC)c(OC)c1 | 
22 | > 100 µM | CCOC(=S)S/C(C(=O)/C=C/c1ccc(OC)c(OC)c1)=C(O)\C=C\c1ccc(OC)c(OC)c1 | 
